Results taken from patent US10738028B2, “Spiro three-membered ring, spiro five-membered ring peptide deformylase inhibitor and use thereof in antibacteria and anti-tumor” (priority 2016, dated 2020).

How the values were obtained:
Assay type in all cases: cell-based
[1] = system: HCT-116 colorectal cancer cell line; test: CCK-8 proliferation inhibition; settings: Homo sapiens, HCT-116, 72 h, concentration of 30 μM; 72 hours; CCK-8; read-out: HCT116 inhibition rate/%
Method in brief: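 Viability read-out: 1:10 diluted CCK-8 after 72 h compound exposure at 37 °C, 5% CO2. Cells (2000/well, McCoy's 5A plus 10% newborn bovine serum) pre-cultured overnight; vehicle control 1‰ DMSO.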

[2] = system: Enterococcus faecalis (EFA); test: MIC, two-fold agar dilution (CLSI), clinical isolates
Method in brief: (§1)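 Following the American Clinical and Laboratory Standards Institute procedure, agar two-fold dilution served to determine minimum inhibitory concentrations.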

[3] = system: Escherichia coli (including ESBLs, non-ESBLs); test: as above; settings: for Anti-bacterial activity (MIC), strain ECO+ 15-1: clinical isolate ECO+ 15-1; for Anti-bacterial activity (MIC), strain ECO+ 15-2: clinical isolate ECO+ 15-2; for Anti-bacterial activity (MIC), strain ECO+ 15-3: clinical isolate ECO+ 15-3; for Anti-bacterial activity (MIC), strain ECO+ 15-4: clinical isolate ECO+ 15-4; for Anti-bacterial activity (MIC), strain ECO− 15-1: clinical isolate ECO− 15-1; for Anti-bacterial activity (MIC), strain ECO− 15-2: clinical isolate ECO− 15-2; for Anti-bacterial activity (MIC), strain ECO− 15-3: clinical isolate ECO− 15-3; for Anti-bacterial activity (MIC), strain ECO− 15-4: clinical isolate ECO− 15-4
Method in brief: as §1

[4] = system: methicillin-resistant Staphylococcus aureus (MRSA); test: as above; settings: for Anti-bacterial activity (MIC), strain MRSA 15-1: clinical isolate MRSA 15-1; for Anti-bacterial activity (MIC), strain MRSA 15-2: clinical isolate MRSA 15-2; for Anti-bacterial activity (MIC), strain MRSA 15-3: clinical isolate MRSA 15-3; for Anti-bacterial activity (MIC), strain MRSA 15-4: clinical isolate MRSA 15-4
Method in brief: as §1

[5] = system: methicillin-sensitive Staphylococcus epidermidis (MSSE); test: as above; settings: for Anti-bacterial activity (MIC), strain MSSE 15-3: clinical isolate MSSE 15-3; for Anti-bacterial activity (MIC), strain MSSE 15-4: clinical isolate MSSE 15-4; for Anti-bacterial activity (MIC), strain MSSE 15-5: clinical isolate MSSE 15-5; for Anti-bacterial activity (MIC), strain MSSE 15-6: clinical isolate MSSE 15-6
Method in brief: as §1

[6] = system: Enterococcus faecium (EFM); test: as above
Method in brief: as §1

[7] = system: methicillin-sensitive Staphylococcus aureus (MSSA); test: as above; settings: for Anti-bacterial activity (MIC), strain MSSA 15-3: clinical isolate MSSA 15-3; for Anti-bacterial activity (MIC), strain MSSA 15-4: clinical isolate MSSA 15-4; for Anti-bacterial activity (MIC), strain MSSA 15-5: clinical isolate MSSA 15-5; for Anti-bacterial activity (MIC), strain MSSA 15-6: clinical isolate MSSA 15-6
Method in brief: as §1

[8] = system: methicillin-resistant Staphylococcus epidermidis (MRSE); test: as above; settings: for Anti-bacterial activity (MIC), strain MRSE 15-1: clinical isolate MRSE 15-1; for Anti-bacterial activity (MIC), strain MRSE 15-2: clinical isolate MRSE 15-2; for Anti-bacterial activity (MIC), strain MRSE 15-3: clinical isolate MRSE 15-3; for Anti-bacterial activity (MIC), strain MRSE 15-7: clinical isolate MRSE 15-7
Method in brief: as §1

[9] = system: Moraxella catarrhalis (BCA); test: as above
Method in brief: as §1

[10] = system: Streptococcus pneoumoniae (SPN); test: as above
Method in brief: as §1

O=C(C[C@@H](CC1CCCC1)C(=O)N1CC2(CC2)C[C@H]1C(=O)Nc1ncco1)NO [Example 69]
15%: inhibition at 30 µM [1]
2 µg/mL: Anti-bacterial activity (MIC), strain MRSA 15-1 [4] | Anti-bacterial activity (MIC), strain MRSA 15-3 [4] | Anti-bacterial activity (MIC), strain MSSE 15-6 [5] | Anti-bacterial activity (MIC), strain MSSA 15-4 [7] | Anti-bacterial activity (MIC), strain MSSA 15-5 [7] | Anti-bacterial activity (MIC) ([10]; strain SPN 16-2)
4 µg/mL: Anti-bacterial activity (MIC) ([9]; strain BCA 14-10)
1 µg/mL: Anti-bacterial activity (MIC), strain MSSE 15-3 [5] | Anti-bacterial activity (MIC) ([10]; strain SPN 16-4)
32 µg/mL: Anti-bacterial activity (MIC), strain ECO+ 15-1 [3] | Anti-bacterial activity (MIC), strain ECO+ 15-2 [3] | Anti-bacterial activity (MIC), strain ECO+ 15-3 [3] | Anti-bacterial activity (MIC), strain ECO− 15-1 [3] | Anti-bacterial activity (MIC), strain ECO− 15-2 [3] | Anti-bacterial activity (MIC), strain ECO− 15-3 [3] | Anti-bacterial activity (MIC), strain ECO− 15-4 [3]
8 µg/mL: Anti-bacterial activity (MIC), strain MRSA 15-2 [4] | Anti-bacterial activity (MIC), strain MRSA 15-4 [4] | Anti-bacterial activity (MIC), strain MSSE 15-4 [5] | Anti-bacterial activity (MIC), strain MSSE 15-5 [5] | Anti-bacterial activity (MIC) ([6]; strain EFM 15-5) | Anti-bacterial activity (MIC) ([6]; strain EFM 15-6) | Anti-bacterial activity (MIC), strain MSSA 15-3 [7] | Anti-bacterial activity (MIC), strain MRSE 15-1 [8] | Anti-bacterial activity (MIC), strain MRSE 15-2 [8] | Anti-bacterial activity (MIC), strain MRSE 15-3 [8] | Anti-bacterial activity (MIC), strain MRSE 15-7 [8] | Anti-bacterial activity (MIC) ([9]; strain BCA 14-5)
> 32 µg/mL: Anti-bacterial activity (MIC) ([2]; strain EFA 15-1) | Anti-bacterial activity (MIC) ([2]; strain EFA 15-2) | Anti-bacterial activity (MIC) ([2]; strain EFA 15-3) | Anti-bacterial activity (MIC) ([2]; strain EFA 15-4) | Anti-bacterial activity (MIC) ([2]; strain EFA 15-5) | Anti-bacterial activity (MIC) ([2]; strain EFA 15-6) | Anti-bacterial activity (MIC) ([2]; strain EFA 15-9) | Anti-bacterial activity (MIC), strain ECO+ 15-4 [3] | Anti-bacterial activity (MIC) ([6]; strain EFM 15-1) | Anti-bacterial activity (MIC) ([6]; strain EFM 15-2) | Anti-bacterial activity (MIC) ([6]; strain EFM 15-3) | Anti-bacterial activity (MIC) ([6]; strain EFM 15-4) | Anti-bacterial activity (MIC), strain MSSA 15-6 [7] | Anti-bacterial activity (MIC) ([9]; strain BCA 14-1) | Anti-bacterial activity (MIC) ([9]; strain BCA 14-4) | Anti-bacterial activity (MIC) ([9]; strain BCA 14-6) | Anti-bacterial activity (MIC) ([9]; strain BCA 14-7) | Anti-bacterial activity (MIC) ([9]; strain BCA 14-8)

O=C(C[C@@H](CC1CCCC1)C(=O)N1CC2(CC2)C[C@H]1C(=O)Nc1nncs1)NO [Example 74]
1 µg/mL: Anti-bacterial activity (MIC), strain MSSE 15-3 [5] | Anti-bacterial activity (MIC), strain MSSE 15-4 [5] | Anti-bacterial activity (MIC), strain MSSE 15-5 [5] | Anti-bacterial activity (MIC), strain MSSE 15-6 [5] | Anti-bacterial activity (MIC), strain MRSE 15-2 [8] | Anti-bacterial activity (MIC), strain MRSE 15-3 [8]
2 µg/mL: Anti-bacterial activity (MIC), strain MSSA 15-5 [7]
1%: inhibition at 30 µM [1]
16 µg/mL: Anti-bacterial activity (MIC) ([2]; strain EFA 15-3) | Anti-bacterial activity (MIC) ([6]; strain EFM 15-1) | Anti-bacterial activity (MIC) ([9]; strain BCA 14-5)
> 32 µg/mL: Anti-bacterial activity (MIC) ([2]; strain EFA 15-1) | Anti-bacterial activity (MIC) ([2]; strain EFA 15-2) | Anti-bacterial activity (MIC) ([2]; strain EFA 15-4) | Anti-bacterial activity (MIC) ([2]; strain EFA 15-5) | Anti-bacterial activity (MIC) ([2]; strain EFA 15-6) | Anti-bacterial activity (MIC) ([2]; strain EFA 15-9) | Anti-bacterial activity (MIC), strain ECO+ 15-2 [3] | Anti-bacterial activity (MIC), strain ECO+ 15-3 [3] | Anti-bacterial activity (MIC), strain ECO+ 15-4 [3] | Anti-bacterial activity (MIC), strain ECO− 15-1 [3] | Anti-bacterial activity (MIC), strain ECO− 15-2 [3] | Anti-bacterial activity (MIC), strain ECO− 15-3 [3] | Anti-bacterial activity (MIC), strain ECO− 15-4 [3] | Anti-bacterial activity (MIC) ([9]; strain BCA 14-1) | Anti-bacterial activity (MIC) ([9]; strain BCA 14-4) | Anti-bacterial activity (MIC) ([9]; strain BCA 14-6) | Anti-bacterial activity (MIC) ([9]; strain BCA 14-7) | Anti-bacterial activity (MIC) ([9]; strain BCA 14-8) | Anti-bacterial activity (MIC) ([9]; strain BCA 14-10)
8 µg/mL: Anti-bacterial activity (MIC), strain MRSA 15-2 [4] | Anti-bacterial activity (MIC), strain MRSA 15-4 [4]
32 µg/mL: Anti-bacterial activity (MIC), strain ECO+ 15-1 [3] | Anti-bacterial activity (MIC) ([6]; strain EFM 15-2) | Anti-bacterial activity (MIC) ([6]; strain EFM 15-4) | Anti-bacterial activity (MIC) ([6]; strain EFM 15-6) | Anti-bacterial activity (MIC) ([10]; strain SPN 16-2)
4 µg/mL: Anti-bacterial activity (MIC), strain MRSA 15-1 [4] | Anti-bacterial activity (MIC) ([6]; strain EFM 15-3) | Anti-bacterial activity (MIC) ([6]; strain EFM 15-5) | Anti-bacterial activity (MIC), strain MSSA 15-3 [7] | Anti-bacterial activity (MIC), strain MSSA 15-4 [7] | Anti-bacterial activity (MIC), strain MSSA 15-6 [7] | Anti-bacterial activity (MIC), strain MRSE 15-7 [8] | Anti-bacterial activity (MIC) ([10]; strain SPN 16-4)
5 µg/mL: Anti-bacterial activity (MIC), strain MRSA 15-3 [4]
0.5 µg/mL: Anti-bacterial activity (MIC), strain MRSE 15-1 [8]

CCCC[C@H](CC(=O)NO)C(=O)N1CC2(CCCC2)C[C@H]1C(=O)Nc1cc(C)on1 [Example 80, (S)-2-((R)-2-(2-(hydroxyamino)-2-oxoethyl)hexanoyl)-N-(5-methylisoxazol-3-yl)-2-spiro[4.4]nonane-3-carboxamide]
> 16 µg/mL: Anti-bacterial activity (MIC) ([2]; strain EFA 15-2) | Anti-bacterial activity (MIC) ([2]; strain EFA 15-4) | Anti-bacterial activity (MIC) ([2]; strain EFA 15-5) | Anti-bacterial activity (MIC) ([2]; strain EFA 15-6) | Anti-bacterial activity (MIC) ([2]; strain EFA 15-9) | Anti-bacterial activity (MIC) ([3]; strain ECO+ 15-1) | Anti-bacterial activity (MIC) ([3]; strain ECO+ 15-3) | Anti-bacterial activity (MIC) ([3]; strain ECO+ 15-4) | Anti-bacterial activity (MIC) ([3]; strain ECO− 15-1) | Anti-bacterial activity (MIC) ([3]; strain ECO− 15-2) | Anti-bacterial activity (MIC) ([3]; strain ECO− 15-3) | Anti-bacterial activity (MIC) ([3]; strain ECO− 15-4)
4 µg/mL: Anti-bacterial activity (MIC) ([6]; strain EFM 15-2) | Anti-bacterial activity (MIC) ([6]; strain EFM 15-4) | Anti-bacterial activity (MIC) ([9]; strain BCA 14-7) | Anti-bacterial activity (MIC) ([9]; strain BCA 14-10) | Anti-bacterial activity (MIC) ([10]; strain SPN 16-4)
2 µg/mL: Anti-bacterial activity (MIC) ([4]; strain MRSA 15-2) | Anti-bacterial activity (MIC) ([4]; strain MRSA 15-4) | Anti-bacterial activity (MIC) ([6]; strain EFM 15-5) | Anti-bacterial activity (MIC) ([7]; strain MSSA 15-3) | Anti-bacterial activity (MIC) ([8]; strain MRSE 15-7) | Anti-bacterial activity (MIC) ([9]; strain BCA 14-5)
0.5 µg/mL: Anti-bacterial activity (MIC) ([7]; strain MSSA 15-5) | Anti-bacterial activity (MIC) ([8]; strain MRSE 15-2) | Anti-bacterial activity (MIC) ([8]; strain MRSE 15-3)
11%: inhibition at 30 µM [1]
16 µg/mL: Anti-bacterial activity (MIC) ([2]; strain EFA 15-1) | Anti-bacterial activity (MIC) ([3]; strain ECO+ 15-2)
0.25 µg/mL: Anti-bacterial activity (MIC) ([5]; strain MSSE 15-4) | Anti-bacterial activity (MIC) ([5]; strain MSSE 15-5) | Anti-bacterial activity (MIC) ([5]; strain MSSE 15-6) | Anti-bacterial activity (MIC) ([8]; strain MRSE 15-1)
8 µg/mL: Anti-bacterial activity (MIC) ([2]; strain EFA 15-3) | Anti-bacterial activity (MIC) ([6]; strain EFM 15-1) | Anti-bacterial activity (MIC) ([6]; strain EFM 15-3) | Anti-bacterial activity (MIC) ([6]; strain EFM 15-6) | Anti-bacterial activity (MIC) ([9]; strain BCA 14-1) | Anti-bacterial activity (MIC) ([9]; strain BCA 14-4) | Anti-bacterial activity (MIC) ([9]; strain BCA 14-6) | Anti-bacterial activity (MIC) ([9]; strain BCA 14-8) | Anti-bacterial activity (MIC) ([10]; strain SPN 16-2)
1 µg/mL: Anti-bacterial activity (MIC) ([4]; strain MRSA 15-1) | Anti-bacterial activity (MIC) ([4]; strain MRSA 15-3) | Anti-bacterial activity (MIC) ([5]; strain MSSE 15-3) | Anti-bacterial activity (MIC) ([7]; strain MSSA 15-4) | Anti-bacterial activity (MIC) ([7]; strain MSSA 15-6)
